What all share (test): Bliss excess, mean over the matrix (fraction); higher = more synergy
For one assay, the system named is NCI-H2052 (Mesothelioma). The method, boiled down: (§1)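 Cell lines in DMEM/F12 or RPMI with 10% FBS were plated in 1536-well plates, held 24 hours at 37°C, 5% CO2, then given two-drug dose matrices for 72 hours (DMSO typically 0.2%). Viability was read by CellTiter-Glo 2.0 luminescence and scaled as inhibition from 0 (vehicle wells) to 1 (blank wells). Combination Emax is the second-highest inhibition in the matrix; Bliss excess is observed combination effect minus expected EA + EB − EA·EB, EA and EB being single-agent effects.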

Assay [1] has as its system LCLC-97TM1 (Non-Small Cell Lung Carcinoma). Put shortly:
as §1

A further assay concerns BPH-1 (Non-Cancerous). Put shortly: as §1
The subject of assay [2] is HuCCT1 (Biliary Tract Carcinoma). The method, boiled down: as §1
The subject of another assay is CAL-72 (Osteosarcoma). The method, boiled down: as §1
The subject of a further assay is BE2-M17 (Neuroblastoma). Put shortly: as §1
The subject of assay [3] is HH (T-Cell Non-Hodgkin's Lymphoma). Put shortly:
as §1

For assay [4], the system named is BE-13 (T-Lymphoblastic Leukemia). Put shortly: as §1
The test system of assay [5] is L-428 (Hodgkin's Lymphoma). Put shortly: as §1
The test system of assay [6] is HuH-7 (Hepatocellular Carcinoma). The method, boiled down: as §1
For another assay, the system named is EW-11 (Ewing's Sarcoma). Put shortly: as §1
For another assay, the system named is GAMG (Glioblastoma). Put shortly: as §1
Assay [7] concerns NCI-H524 (Small Cell Lung Carcinoma). Put shortly: as §1
The subject of assay [8] is OV-56 (Ovarian Carcinoma). The method, boiled down:
as §1

Assay [9] deals with ALL-PO (B-Lymphoblastic Leukemia). Put shortly:
as §1

A further assay has as its system NCI-H2722 (Mesothelioma). The method, boiled down:
as §1

Another assay deals with MPP-89 (Mesothelioma). Put shortly: as §1
Assay [10] deals with SNU-449 (Hepatocellular Carcinoma). The method, boiled down:
as §1

Assay [11] concerns LS-123 (Colorectal Carcinoma). The method, boiled down:
as §1

Assay [12] has as its system HeLa (Cervical Carcinoma). The method, boiled down: as §1

As to `COc1cccc(OCCCN)c1-c1cc(Nc2cnc(C#N)cn2)n[nH]1` [Prexasertib] + CCc1c2c(nc3ccc(O)cc13)-c1cc3c(c(=O)n1C2)COC(=O)[C@]3(O)CC [SN-38] (first compound max 1 µM, 7x7, partner max 0.3 µM), the Bliss excess is -0.0138 in the assay on NCI-H2052 (Mesothelioma); 0.0863 in [1]; 0.011 in the assay on BPH-1 (Non-Cancerous); -0.0044 in assay [2]; -0.0158 with CAL-72 (Osteosarcoma); 0.0576 in the assay with BE2-M17 (Neuroblastoma). In addition, the Bliss excess is 0.0727 in [3]; 0.0072 in assay [4]; -0.0235 in assay [5]; 0.122 in assay [6]; -0.153 in the assay on EW-11 (Ewing's Sarcoma); 0.0292 in the assay with GAMG (Glioblastoma). In addition, the Bliss excess in [7] was 0.0554; in assay [8] it was 0.009; in assay [9] it was -0.0336; in the assay on NCI-H2722 (Mesothelioma), -0.0565; with MPP-89 (Mesothelioma) it was 0.0256; in assay [10] it was -0.0091. For the same compound, the Bliss excess stood at 0.0186 in [11] and 0.0837 in assay [12].

As to `COc1cccc(OCCCN)c1-c1cc(Nc2cnc(C#N)cn2)n[nH]1` [Prexasertib] + CN(C)CCCOc1ccc(-c2ccc3ncc4c(c3c2)n(C2CCOCC2)c(=O)n4C)cn1 [AZD0156] (first compound max 1 µM, 7x7, partner max 1 µM), the Bliss excess in the assay on NCI-H2052 (Mesothelioma) was -0.025; in [1], -0.0439; in the assay on BPH-1 (Non-Cancerous) it was 0.0118; in [2], -0.0357; in the assay with CAL-72 (Osteosarcoma) it was -0.0922; in the assay on BE2-M17 (Neuroblastoma), -0.0185. In addition, the Bliss excess was -0.0001 in [3]; -0.0338 in assay [4]; -0.0144 in assay [5]; -0.0335 in [6]; -0.0705 with EW-11 (Ewing's Sarcoma); -0.0261 in the assay with GAMG (Glioblastoma). Also, the Bliss excess is -0.0435 in [7]; -0.0442 in assay [8]; 0.0036 in assay [9]; 0.0073 with NCI-H2722 (Mesothelioma); -0.0242 with MPP-89 (Mesothelioma); -0.0227 in [10]. For the same compound, the figures for the Bliss excess in assay [11] and in assay [12] were -0.0387 and 0.0079, respectively.

In the case of `COc1cccc(OCCCN)c1-c1cc(Nc2cnc(C#N)cn2)n[nH]1` [Prexasertib] + C[C@@H]1COCCN1C2=NC(=NC(=C2)C3(CC3)[S@](=N)(=O)C)C4=C5C=CNC5=NC=C4 [AZD6738] (first compound max 1 µM, 7x7, partner max 10 µM), the Bliss excess in the assay on NCI-H2052 (Mesothelioma) was -0.0282; in [1] it was -0.0351; with BPH-1 (Non-Cancerous), -0.015; in assay [2] it was -0.0108; in the assay with CAL-72 (Osteosarcoma), -0.0244; in the assay on BE2-M17 (Neuroblastoma), -0.0172. For the same compound, the Bliss excess in [3] was -0.0053; in assay [4] it was -0.0018; in assay [5] it was -0.0418; in [6], 0.0392; with EW-11 (Ewing's Sarcoma), 0.0197; in the assay with GAMG (Glioblastoma), 0.0414. For the same compound, the Bliss excess in assay [7] was -0.0122; in assay [8] it was 0.0148; in assay [9], 0.0584; with NCI-H2722 (Mesothelioma), -0.002; with MPP-89 (Mesothelioma) it was -0.0232; in assay [10], 0.0134. Further, the Bliss excess in assay [11] was -0.0242; in [12] it was 0.005.

As to `COc1cccc(OCCCN)c1-c1cc(Nc2cnc(C#N)cn2)n[nH]1` [Prexasertib] + Cc1cc2ncnn2cc1Nc1ncc2c(n1)n(C1CCOCC1)c(=O)n2C [AZD7648] (first compound max 1 µM, 7x7, partner max 10 µM), the Bliss excess in the assay with NCI-H2052 (Mesothelioma) was -0.0349; in assay [1], -0.0411; in the assay on BPH-1 (Non-Cancerous) it was 0.0161; in assay [2] it was -0.0259; in the assay on CAL-72 (Osteosarcoma), -0.112; in the assay on BE2-M17 (Neuroblastoma), 0.0047. Further, the Bliss excess was -0.021 in assay [3]; 0.0364 in [4]; -0.0165 in [5]; -0.0199 in assay [6]; -0.0303 in the assay on EW-11 (Ewing's Sarcoma); -0.0214 in the assay on GAMG (Glioblastoma). In addition, the Bliss excess in assay [7] was -0.0204; in [8] it was -0.0467; in assay [9], 0.0031; in the assay with NCI-H2722 (Mesothelioma) it was -0.012; in the assay on MPP-89 (Mesothelioma) it was -0.0104; in assay [10] it was -0.0861. The Bliss excess in [11] was -0.0141; in assay [12] it was 0.0133.

For the compound `COc1cccc(OCCCN)c1-c1cc(Nc2cnc(C#N)cn2)n[nH]1` [Prexasertib] + O=C(c1cc(Cc2n[nH]c(=O)c3ccccc23)ccc1F)N1CCN(C(=O)C2CC2)CC1 [Olaparib] (first compound max 1 µM, 7x7, partner max 10 µM), the Bliss excess in the assay on NCI-H2052 (Mesothelioma) was -0.0332; in assay [1], -0.0381; with BPH-1 (Non-Cancerous) it was 0.0266; in assay [2], -0.0824; in the assay with CAL-72 (Osteosarcoma), -0.135; in the assay on BE2-M17 (Neuroblastoma) it was -0.0225. The Bliss excess in assay [3] is -0.121; in assay [4], -0.0341; in assay [5], -0.0418; in assay [6] it was -0.0527; with EW-11 (Ewing's Sarcoma), -0.0849; in the assay with GAMG (Glioblastoma), 0.0122. The Bliss excess in assay [7] was -0.0666; in assay [8] it was -0.0739; in assay [9], -0.0194; with NCI-H2722 (Mesothelioma), -0.0088; in the assay with MPP-89 (Mesothelioma), -0.0227; in assay [10], -0.0813. For the same compound, the results for the Bliss excess in [11] and in assay [12] were -0.0312 and -0.0483, respectively.

In the case of `CCc1c2c(nc3ccc(O)cc13)-c1cc3c(c(=O)n1C2)COC(=O)[C@]3(O)CC` [SN-38] + CN(C)CCCOc1ccc(-c2ccc3ncc4c(c3c2)n(C2CCOCC2)c(=O)n4C)cn1 [AZD0156] (first compound max 0.3 µM, 7x7, partner max 1 µM), the Bliss excess in the assay on NCI-H2052 (Mesothelioma) was -0.0409; in [1], -0.0059; with BPH-1 (Non-Cancerous), 0.0463; in [2] it was -0.0337; in the assay with CAL-72 (Osteosarcoma), 0.0114; with BE2-M17 (Neuroblastoma), -0.0073. The Bliss excess in assay [3] is -0.0452; in assay [4], -0.103; in [5], -0.0558; in assay [6] it was 0; in the assay on EW-11 (Ewing's Sarcoma), -0.012; with GAMG (Glioblastoma), 0.0527. The Bliss excess is 0.0993 in [7]; 0.0154 in assay [8]; 0.0685 in [9]; -0.0318 with NCI-H2722 (Mesothelioma); 0.0342 in the assay on MPP-89 (Mesothelioma); -0.0353 in [10]. In addition, the Bliss excess was -0.0648 in assay [11] and 0.0255 in assay [12].

As to `Cn1cnc2c(F)c(Nc3ccc(Br)cc3Cl)c(C(=O)NOCCO)cc21` [Selumetinib] + C=CCn1c(=O)c2cnc(Nc3ccc(N4CCN(C)CC4)cc3)nc2n1-c1cccc(C(C)(C)O)n1 [AZD1775] (first compound max 10 µM, partner max 1 µM), the Bliss excess in the assay on NCI-H2052 (Mesothelioma) is -0.0747; in assay [1], -0.0335; in the assay on BPH-1 (Non-Cancerous) it was 0.0209; in assay [2], -0.0385; in the assay on CAL-72 (Osteosarcoma), -0.117; in the assay with BE2-M17 (Neuroblastoma) it was -0.11. Also, the Bliss excess was -0.0605 in assay [3]; -0.0423 in assay [4]; -0.0744 in assay [5]; -0.0509 in [6]; -0.0464 in the assay with EW-11 (Ewing's Sarcoma); 0.0063 with GAMG (Glioblastoma). Moreover, the Bliss excess in [7] is -0.0452; in assay [8], -0.0766; in [9] it was 0.0229; in the assay with NCI-H2722 (Mesothelioma) it was -0.046; with MPP-89 (Mesothelioma), -0.0131; in assay [10], -0.0413. Besides, the Bliss excess was 0.0099 in assay [11] and -0.0826 in assay [12].

Values taken from the supplement of paper PMC11061612.
